For orientation: pIC50 means the negative decadic logarithm of the IC50, by convention in mol/L.

Here are results for 14 molecules from patent publication US20230159527A1, “COMPOUNDS AS BCL-2 INHIBITORS” (Fochon Pharmaceuticals, Ltd., priority 2020, published 2023).

pIC50: −log10 of the molar value. Some results are limits rather than exact numbers.

What all share (assay type): cell-based
In one assay the test system is RS4;11 cells. Nature of the assay: Cell proliferation assay, RS4;11 cells (MTS, 72 h). Particulars: Homo sapiens, RS4;11 cell proliferation. The essentials:
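RS4;11 cells (30000/well, RPMI-1640 plus 10% FBS) treated with compounds at 1.5-10000 nM for 72 h at 37° C, 5% CO2. Viability by MTS (2 h), absorbance at 490 nm with 650 nm reference; IC50 from proliferation inhibition.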

A further assay has as its system DoHH2 cells. Nature of the assay: Cell proliferation assay, DoHH2 cells (MTS, 120 h). The following applies: Homo sapiens, DOHH-2. The essentials:
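DoHH2 cells in RPMI-1640 with 10% FBS were plated at 5000/well and rested 4 h. They were then exposed to compound at nine final concentrations (10000 to 1.5 nM) for 120 h at 37 °C. Viability was read by MTS (2 h, A490) and IC50 derived by curve fitting.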

The test system of a further assay is Toledo cells. The assay is described as follows: Cell proliferation assay, Toledo cells (MTS, 72 h). Particulars: Homo sapiens, Toledo cells, MTS, read-out: Toledo IC50. An outline of the steps: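 Toledo cells (30000/well, RPMI-1640 with 10% FBS) were preincubated for 4 h. They were then exposed to nine compound concentrations from 10000 to 1.5 nM for 72 h at 37 °C, 5% CO2. MTS was added for 2 h and absorbance read at 490 nm to give IC50.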

As for `CN1CCN(C2CC3(CCN(c4ccc(C(=O)NS(=O)(=O)c5cnc(NC[C@H]6CC[C@](C)(O)CC6)c([N+](=O)[O-])c5)c(Oc5cnc6[nH]ccc6c5)c4)CC3)C2)[C@H](c2ccccc2C2CC2)C1` (single isomer, unassigned) [Example A-40, 2-((1H-pyrrolo[2,3-b]pyridin-5-yl)oxy)-4-(2-((R or S)-2-(2-cyclopropylphenyl)-4-methylpiperazin-1-yl)-7-azaspiro[3.5]nonan-7-yl)-N-((6-((((1r,4r)-4-hydroxy-4-methylcyclohexyl)methyl)amino)-5-nitropyridin-3-yl)sulfonyl)benzamide], the pIC50 was at least 9.00 in the assay with RS4;11 cells, at least 9.00 in the assay on DoHH2 cells and 9.00 in the assay with Toledo cells.

Consider `CC(C)c1ccccc1[C@H]1CCCN1C1CC2(CCN(c3ccc(C(=O)NS(=O)(=O)c4cnc(NCC5(F)CCOCC5)c([N+](=O)[O-])c4)c(Oc4cnc5[nH]ccc5c4)c3)CC2)C1` [Example A-31b, (R)-2-((1H-pyrrolo[2,3-b]pyridin-5-yl)oxy)-N-((6-(((4-fluorotetra-hydro-2H-pyran-4-yl)methyl)amino)-5-nitropyridin-3-yl)sulfonyl)-4-(2-(2-(2-isopropylphenyl)pyrrolidin-1-yl)-7-azaspiro[3.5]nonan-7-yl)benzamide], for which the negative logarithm of the IC50 (pIC50) is at least 9.00 with RS4;11 cells, at least 9.00 in the assay on DoHH2 cells and 8.70 in the assay on Toledo cells.

Regarding `CC1(O)CCC(CNc2ncc(S(=O)(=O)NC(=O)c3ccc(N4CCC5(CC4)CC(N4CCOC[C@H]4c4ccccc4C4CC4)C5)cc3Oc3cnc4[nH]ccc4c3)cc2[N+](=O)[O-])CC1` (single isomer, unassigned) [Example A-34, (R or S)-2-((1H-pyrrolo[2,3-b]pyridin-5-yl)oxy)-4-(2-(3-(2-cyclopropylphenyl)morpholino)-7-azaspiro[3.5]nonan-7-yl)-N-((6-(((4-hydroxy-4-methylcyclohexyl)methyl)amino)-5-nitropyridin-3-yl)sulfonyl) benzamide], the results for the pIC50 in the assay on RS4;11 cells, with DoHH2 cells and in the assay on Toledo cells were at least 9.00, at least 9.00 and 8.15, respectively.

`CC(C)c1ccccc1[C@@H]1CCCN1C1CC2(CCN(c3ccc(C(=O)NS(=O)(=O)c4cc5c(c([N+](=O)[O-])c4)O[C@H](CN4CCOCC4)CO5)c(Oc4cnc5[nH]ccc5c4)c3)CC2)C1` (single isomer, unassigned) [Example E-39, 2-((1H-pyrrolo [2,3-b]pyridin-5-yl)oxy)-4-(2-((R or S)-2-(2-isopropylphenyl)pyrrolidin-1-yl)-7-azaspiro[3.5]nonan-7-yl)-N-(((R)-2-(morpholinomethyl)-8-nitro-2,3-dihydrobenzo [b][1,4]dioxin-6-yl)sulfonyl) benzamide]: the pIC50 in the assay with RS4;11 cells was at least 9.00; with DoHH2 cells it was at least 9.00; in the assay with Toledo cells it was 9.00.

As to `CN1CCN(C2CC3(CCN(c4ccc(C(=O)NS(=O)(=O)c5cnc(NCC6CCOCC6)c([N+](=O)[O-])c5)c(Oc5cnc6[nH]ccc6c5)c4)CC3)C2)[C@H](c2ccccc2C2CC2)C1` (single isomer, unassigned) [Example A-39a, (R or S)-2-((1H-pyrrolo[2,3-b]pyridin-5-yl)oxy)-4-(2-(2-(2-cyclopropyl-phenyl)-4-methylpiperazin-1-yl)-7-azaspiro[3.5]nonan-7-yl)-N-((5-nitro-6-(((tetrahydro-2H-pyran-4-yl)methyl)amino)pyridin-3-yl)sulfonyl) benzamide], the pIC50 was at least 9.00 in the assay on RS4;11 cells, at least 9.00 in the assay with DoHH2 cells and 9.00 in the assay with Toledo cells.

Turning to `C[C@]1(O)CC[C@H](CNc2ncc(S(=O)(=O)NC(=O)c3ccc(N4CCC5(CC4)CC(N4CCNC[C@H]4c4ccccc4C4CC4)C5)cc3Oc3cnc4[nH]ccc4c3)cc2[N+](=O)[O-])CC1` [Example A-37, 2-((1H-pyrrolo[2,3-b]pyridin-5-yl)oxy)-4-(2-((R)-2-(2-cyclopropyl-phenyl)piperazin-1-yl)-7-azaspiro [3.5]nonan-7-yl)-N-((6-((((1r,4r)-4-hydroxy-4-methylcyclohexyl)methyl)amino)-5-nitropyridin-3-yl)sulfonyl)benzamide], the pIC50 in the assay on RS4;11 cells is at least 9.00; with DoHH2 cells, at least 9.00; in the assay on Toledo cells, 9.00.

Take `CC(C)c1ccccc1C1COCCN1C1CC2(CCN(c3ccc(C(=O)NS(=O)(=O)c4cnc(NCC5CCOCC5)c([N+](=O)[O-])c4)c(Oc4cnc5[nH]ccc5c4)c3)CC2)C1` (single isomer, unassigned) [Example A-55a, (R or S)-2-((1H-pyrrolo[2,3-b]pyridin-5-yl)oxy)-4-(2-(3-(2-isopropyl-phenyl)morpholino)-7-azaspiro[3.5]nonan-7-yl)-N-((5-nitro-6-(((tetra-hydro-2H-pyran-4-yl)methyl)amino)pyridin-3-yl)sulfonyl)benzamide]: the pIC50 in the assay on RS4;11 cells was at least 9.00; in the assay with DoHH2 cells it was at least 9.00; in the assay on Toledo cells, 8.30.

In the case of `CC(C)c1ccccc1[C@@H]1COCCN1C1CC2(CCN(c3ccc(C(=O)NS(=O)(=O)c4cc5c(c([N+](=O)[O-])c4)O[C@H](CN4CCOCC4)CO5)c(Oc4cnc5[nH]ccc5c4)c3)CC2)C1` (single isomer, unassigned) [Example E-40, 2-((1H-pyrrolo [2,3-b]pyridin-5-yl)oxy)-4-(2-((R or S)-3-(2-isopropylphenyl)morpholino)-7-azaspiro[3.5]nonan-7-yl)-N-(((R)-2-(morpholinomethyl)-8-nitro-2,3-dihydrobenzo [b][1,4]dioxin-6-yl)sulfonyl) benzamide], the pIC50 was at least 9.00 with RS4;11 cells, at least 9.00 in the assay on DoHH2 cells and 9.00 with Toledo cells.

For `CC(C)c1ccccc1[C@@H]1COCCN1C1CC2(CCN(c3ccc(C(=O)NS(=O)(=O)c4cnc(NC[C@H]5CC[C@@](C)(O)CC5)c([N+](=O)[O-])c4)c(Oc4cnc5[nH]ccc5c4)c3)CC2)C1` (single isomer, unassigned) [Example A-56a, 2-((1H-pyrrolo[2,3-b]pyridin-5-yl)oxy)-N-((6-((((1s,4s)-4-hydroxy-4-methylcyclohexyl)methyl)amino)-5-nitropyridin-3-yl)sulfonyl)-4-(2-((R or S)-3-(2-isopropylphenyl)morpho-lino)-7-azaspiro[3.5]nonan-7-yl) benzamide], the pIC50 in the assay with RS4;11 cells is at least 9.00; in the assay on DoHH2 cells, at least 9.00; with Toledo cells, 9.00.

Take `CC(C)c1ccccc1[C@H]1CCCN1C1CC2(CCN(c3ccc(C(=O)NS(=O)(=O)c4cnc(NCC5C6COCC56)c([N+](=O)[O-])c4)c(Oc4cnc5[nH]ccc5c4)c3)CC2)C1` (stereo partly drawn) [Example A-27b, 2-((1H-pyrrolo[2,3-b]pyridin-5-yl)oxy)-N-((6-(((3-oxabicyclo[3.1.0]hexan-6-yl)methyl)amino)-5-nitro-pyridin-3-yl)sulfonyl)-4-(2-((R)-2-(2-isopropylphenyl)pyrrolidin-1-yl)-7-azaspiro[3.5]nonan-7-yl) benzamide]: the pIC50 is at least 9.00 in the assay with RS4;11 cells, at least 9.00 in the assay with DoHH2 cells and 9.00 with Toledo cells.

Regarding `CC(C)c1ccccc1[C@@H]1COCCN1C1CC2(CCN(c3ccc(C(=O)NS(=O)(=O)c4cnc(NC[C@H]5CC[C@](C)(O)CC5)c([N+](=O)[O-])c4)c(Oc4cnc5[nH]ccc5c4)c3)CC2)C1` (single isomer, unassigned) [Example A-56b, 2-((1H-pyrrolo[2,3-b]pyridin-5-yl)oxy)-N-((6-((((1r,4r)-4-hydroxy-4-methylcyclohexyl)methyl)amino)-5-nitropyridin-3-yl)sulfonyl)-4-(2-((R or S)-3-(2-isopropylphenyl)morpho-lino)-7-azaspiro[3.5]nonan-7-yl) benzamide], the negative-log IC50 (pIC50) with RS4;11 cells is at least 9.00; with DoHH2 cells, at least 9.00; in the assay on Toledo cells, 9.00.

Take `CC(C)c1ccccc1[C@H]1CCCN1C1CC2(CCN(c3ccc(C(=O)NS(=O)(=O)c4cnc(NCC5CCOCC5)c([N+](=O)[O-])c4)c(Oc4cnc5[nH]ccc5c4)c3)CC2)C1` [Example A-5b, (R)-2-((1H-pyrrolo[2,3-b]pyridin-5-yl)oxy)-4-(2-(2-(2-isopropylphenyl)pyrrolidin-1-yl)-7-azaspiro[3.5]nonan-7-yl)-N-((5-nitro-6-(((tetrahydro-2H-pyran-4-yl)methyl)amino)pyridin-3-yl)sulfonyl) benzamide]: the values for the negative logarithm of the IC50 (pIC50) with RS4;11 cells, with DoHH2 cells and in the assay on Toledo cells were at least 9.00, at least 9.00 and 9.00, respectively.

As to `CC(C)c1ccccc1[C@H]1CCCN1C1CC2(CCN(c3ccc(C(=O)NS(=O)(=O)c4cnc(NC[C@H]5CC[C@](C)(O)CC5)c([N+](=O)[O-])c4)c(Oc4cnc5[nH]ccc5c4)c3)CC2)C1` [Example A-7b], the pIC50 in the assay on RS4;11 cells was at least 9.00; in the assay on DoHH2 cells it was at least 9.00; with Toledo cells, 9.00.

With `Cc1nc(NC[C@H]2CC[C@](C)(O)CC2)c([N+](=O)[O-])cc1S(=O)(=O)NC(=O)c1ccc(N2CCC3(CC2)CC(N2CCC[C@H]2c2ccccc2C(C)C)C3)cc1Oc1cnc2[nH]ccc2c1` (single isomer, unassigned) [Example A-121, 2-((1H-pyrrolo[2,3-b]pyridin-5-yl)oxy)-N-((6-((((1r,4r)-4-hydroxy-4-methylcyclohexyl)methyl)amino)-2-methyl-5-nitropyridin-3-yl)sulfonyl)-4-(2-((R or S)-2-(2-isopropylphenyl)pyrrolidin-1-yl)-7-azaspiro[3.5]nonan-7-yl) benzamide], the pIC50 with RS4;11 cells was at least 9.00; in the assay on DoHH2 cells it was at least 9.00; in the assay with Toledo cells, 9.00.
